# Experimental data published in the NIST ThermoML archive (doi:10.1021/je034173q).
# ± gives the expanded uncertainty stated by the source.
# Columns and labels:
# [1] = molar heat capacity at constant pressure; conditions: 101.33 kPa, Liquid, Small sample (50 mg) DSC
# [2] = Liquid, Ebulliometric method (Recirculating still)
compound,measurement,setting,value
"CC1COC(=O)O1 (centres undefined) [4-methyl-1,3-dioxolan-2-one]",molar heat capacity at constant pressure,[1]; 303.15 K,170.49 ± 5.1 J/K/mol
same,molar heat capacity at constant pressure,[1]; 313.15 K,172.53 ± 5.1 J/K/mol
same,molar heat capacity at constant pressure,[1]; 323.15 K,174.57 ± 5.1 J/K/mol
same,molar heat capacity at constant pressure,[1]; 333.15 K,176.61 ± 5.1 J/K/mol
same,molar heat capacity at constant pressure,[1]; 343.15 K,178.66 ± 5.1 J/K/mol
same,molar heat capacity at constant pressure,[1]; 353.15 K,180.7 ± 5.1 J/K/mol
same,molar heat capacity at constant pressure,[1]; 363.15 K,183.76 ± 5.1 J/K/mol
same,molar heat capacity at constant pressure,[1]; 373.15 K,185.8 ± 5.1 J/K/mol
same,molar heat capacity at constant pressure,[1]; 383.15 K,188.86 ± 5.1 J/K/mol
same,molar heat capacity at constant pressure,[1]; 393.15 K,190.91 ± 5.1 J/K/mol
same,vapor or sublimation pressure,[2]; 459.85 K,24.21 ± 0.48 kPa
same,vapor or sublimation pressure,[2]; 465.35 K,28.46 ± 0.57 kPa
same,vapor or sublimation pressure,[2]; 468.45 K,31.24 ± 0.63 kPa
same,vapor or sublimation pressure,[2]; 471.75 K,34.04 ± 0.68 kPa
same,vapor or sublimation pressure,[2]; 475.85 K,38.09 ± 0.76 kPa
same,vapor or sublimation pressure,[2]; 478.35 K,40.81 ± 0.82 kPa
same,vapor or sublimation pressure,[2]; 482.25 K,45.44 ± 0.91 kPa
same,vapor or sublimation pressure,[2]; 485.05 K,49.16 ± 0.98 kPa
same,vapor or sublimation pressure,[2]; 491.25 K,57.38 ± 1.1 kPa
same,vapor or sublimation pressure,[2]; 494.25 K,61.83 ± 1.2 kPa
same,vapor or sublimation pressure,[2]; 496.95 K,66.33 ± 1.3 kPa
same,vapor or sublimation pressure,[2]; 499.45 K,70.45 ± 1.4 kPa
same,vapor or sublimation pressure,[2]; 501.25 K,73.46 ± 1.5 kPa
same,vapor or sublimation pressure,[2]; 504.05 K,78.67 ± 1.6 kPa
same,vapor or sublimation pressure,[2]; 506.65 K,83.64 ± 1.7 kPa
same,vapor or sublimation pressure,[2]; 508.15 K,86.64 ± 1.7 kPa
same,vapor or sublimation pressure,[2]; 509.75 K,89.87 ± 1.8 kPa
same,vapor or sublimation pressure,[2]; 511.15 K,92.66 ± 1.9 kPa
same,vapor or sublimation pressure,[2]; 513.25 K,97.17 ± 1.9 kPa
"CCC1COC(=O)O1 (centres undefined) [1,2-butylene carbonate]",molar heat capacity at constant pressure,[1]; 283.15 K,192.75 ± 5.8 J/K/mol
same,molar heat capacity at constant pressure,[1]; 293.15 K,195.07 ± 5.8 J/K/mol
same,molar heat capacity at constant pressure,[1]; 303.15 K,197.4 ± 5.8 J/K/mol
same,molar heat capacity at constant pressure,[1]; 313.15 K,199.72 ± 5.8 J/K/mol
same,molar heat capacity at constant pressure,[1]; 323.15 K,202.04 ± 5.8 J/K/mol
same,molar heat capacity at constant pressure,[1]; 333.15 K,205.52 ± 5.8 J/K/mol
same,molar heat capacity at constant pressure,[1]; 343.15 K,207.85 ± 5.8 J/K/mol
same,molar heat capacity at constant pressure,[1]; 353.15 K,210.17 ± 5.8 J/K/mol
same,molar heat capacity at constant pressure,[1]; 363.15 K,212.49 ± 5.8 J/K/mol
same,molar heat capacity at constant pressure,[1]; 373.15 K,214.81 ± 5.8 J/K/mol
same,vapor or sublimation pressure,[2]; 397.25 K,1.9 ± 0.04 kPa
same,vapor or sublimation pressure,[2]; 402.93 K,2.44 ± 0.05 kPa
same,vapor or sublimation pressure,[2]; 409.65 K,3.23 ± 0.07 kPa
same,vapor or sublimation pressure,[2]; 417.69 K,4.45 ± 0.09 kPa
same,vapor or sublimation pressure,[2]; 424.67 K,5.8 ± 0.12 kPa
same,vapor or sublimation pressure,[2]; 432.03 K,7.57 ± 0.15 kPa
same,vapor or sublimation pressure,[2]; 438.31 K,9.43 ± 0.19 kPa
same,vapor or sublimation pressure,[2]; 445.57 K,12.03 ± 0.24 kPa
same,vapor or sublimation pressure,[2]; 453.2 K,15.39 ± 0.31 kPa
same,vapor or sublimation pressure,[2]; 460.53 K,19.28 ± 0.39 kPa
same,vapor or sublimation pressure,[2]; 467.68 K,23.89 ± 0.48 kPa
same,vapor or sublimation pressure,[2]; 474.59 K,29.14 ± 0.58 kPa
same,vapor or sublimation pressure,[2]; 481.93 K,35.77 ± 0.72 kPa
same,vapor or sublimation pressure,[2]; 488.3 K,42.38 ± 0.85 kPa
same,vapor or sublimation pressure,[2]; 495.04 K,50.52 ± 1 kPa
same,vapor or sublimation pressure,[2]; 501.76 K,59.91 ± 1.2 kPa
same,vapor or sublimation pressure,[2]; 508.33 K,70.54 ± 1.4 kPa
same,vapor or sublimation pressure,[2]; 515.54 K,83.68 ± 1.7 kPa
same,vapor or sublimation pressure,[2]; 522.74 K,99.08 ± 2 kPa
O=C1OCCO1 [ethylene carbonate],molar heat capacity at constant pressure,[1]; 383.15 K,155.87 ± 4.4 J/K/mol
same,molar heat capacity at constant pressure,[1]; 388.15 K,156.75 ± 4.4 J/K/mol
same,molar heat capacity at constant pressure,[1]; 393.15 K,157.63 ± 4.4 J/K/mol
same,molar heat capacity at constant pressure,[1]; 398.15 K,158.51 ± 4.4 J/K/mol
same,vapor or sublimation pressure,[2]; 451.58 K,15.19 ± 0.3 kPa
same,vapor or sublimation pressure,[2]; 456.04 K,17.52 ± 0.35 kPa
same,vapor or sublimation pressure,[2]; 460.15 K,19.94 ± 0.4 kPa
same,vapor or sublimation pressure,[2]; 466.22 K,24.23 ± 0.49 kPa
same,vapor or sublimation pressure,[2]; 487.1 K,44.69 ± 0.89 kPa
same,vapor or sublimation pressure,[2]; 493.67 K,53.59 ± 1.1 kPa
same,vapor or sublimation pressure,[2]; 500.01 K,63.34 ± 1.3 kPa
same,vapor or sublimation pressure,[2]; 505.5 K,73.45 ± 1.5 kPa
O=C1OCC(CO)O1 (centres undefined) [glycerine carbonate],molar heat capacity at constant pressure,[1]; 283.15 K,211.38 ± 5.9 J/K/mol
same,molar heat capacity at constant pressure,[1]; 293.15 K,213.74 ± 5.9 J/K/mol
same,molar heat capacity at constant pressure,[1]; 303.15 K,214.92 ± 5.9 J/K/mol
same,molar heat capacity at constant pressure,[1]; 313.15 K,216.1 ± 5.9 J/K/mol
same,molar heat capacity at constant pressure,[1]; 323.15 K,217.28 ± 5.9 J/K/mol
same,molar heat capacity at constant pressure,[1]; 333.15 K,218.46 ± 5.9 J/K/mol
same,molar heat capacity at constant pressure,[1]; 343.15 K,220.82 ± 5.9 J/K/mol
same,molar heat capacity at constant pressure,[1]; 353.15 K,223.19 ± 5.9 J/K/mol
same,molar heat capacity at constant pressure,[1]; 363.15 K,225.55 ± 7.1 J/K/mol
same,molar heat capacity at constant pressure,[1]; 373.15 K,226.73 ± 7.1 J/K/mol
same,vapor or sublimation pressure,[2]; 429.91 K,0.26 ± 0.01 kPa
same,vapor or sublimation pressure,[2]; 432.47 K,0.3 ± 0.01 kPa
same,vapor or sublimation pressure,[2]; 434.39 K,0.33 ± 0.01 kPa
same,vapor or sublimation pressure,[2]; 435.94 K,0.36 ± 0.01 kPa
same,vapor or sublimation pressure,[2]; 438.9 K,0.41 ± 0.01 kPa
same,vapor or sublimation pressure,[2]; 447.48 K,0.62 ± 0.02 kPa
same,vapor or sublimation pressure,[2]; 449.41 K,0.68 ± 0.02 kPa
same,vapor or sublimation pressure,[2]; 452.48 K,0.78 ± 0.02 kPa
same,vapor or sublimation pressure,[2]; 455.61 K,0.9 ± 0.02 kPa
